Laboratory results reported in patent US20240317727A1 (Duke University, priority 2018, published 2024).

Columns and labels:
[1] = system: heat shock induced chaperone (Hsp25 and Hsp70) expression; assay: Heat shock induced chaperone expression in MEFs, immunoblotting; type: cell-based, mouse; settings: heat shock 42° C. 30 mins, 6-hour recovery, FIG. 3
Protocol: The MEFs were then subjected to heat shock stress at 42° C. for 30 mins to activate HSF1. After heat shock, the MEFs were incubated at 37° C. for a 6-hour recovery. The whole cell lysates were collected at the end of the experiment, and proteins of interest, including Hsp25, Hsp70, HSF1 and GAPDH (as loading control) were assessed by immunoblotting with the corresponding antibody.

[2] = target: T1, recombinant HSF1 DNA-binding domain (DBD) (Homo sapiens, UniProt Q00613); assay: Differential Scanning Fluorimetry (DSF), HSF1 DBD melting temperature; settings: thermal denaturation assay
T1 sequence (Q00613 15-120): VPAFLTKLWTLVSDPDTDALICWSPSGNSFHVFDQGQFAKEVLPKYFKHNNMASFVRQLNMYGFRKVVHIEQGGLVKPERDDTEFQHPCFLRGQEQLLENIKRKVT

O=C(Nc1ccccc1)Nc1ccccc1 [1,3-diphenylurea, reference compound]
heat shock induced chaperone (Hsp25 and Hsp70) expression [1]: showed no impact on HSF1 activity
binding to HSF1 [2]: fails to bind HSF1
